According to patent US8217155B2 (Gilead Colorado, Inc., priority 2007, dated 2012):
Like-named read-outs stand apart in the source and are kept apart here. One block for each molecule: values may come before it.

Experiments:
[1] = target: T1, human ETA receptors expressed in CHO cells (Homo sapiens, UniProt P25101); assay: In vitro ETA receptor binding, [125I]-labeled ET-1 displacement; conditions: incubation time 30 minutes; for affinity for the ETA receptor relative to that for the ETB receptor: CHO cells; for Ki: not steady-state, read-out: Ki ± SE, ETA
T1 construct: expressed in transfected cells; host or cells: CHO cells (membranes)
T1 sequence (P25101 21-427): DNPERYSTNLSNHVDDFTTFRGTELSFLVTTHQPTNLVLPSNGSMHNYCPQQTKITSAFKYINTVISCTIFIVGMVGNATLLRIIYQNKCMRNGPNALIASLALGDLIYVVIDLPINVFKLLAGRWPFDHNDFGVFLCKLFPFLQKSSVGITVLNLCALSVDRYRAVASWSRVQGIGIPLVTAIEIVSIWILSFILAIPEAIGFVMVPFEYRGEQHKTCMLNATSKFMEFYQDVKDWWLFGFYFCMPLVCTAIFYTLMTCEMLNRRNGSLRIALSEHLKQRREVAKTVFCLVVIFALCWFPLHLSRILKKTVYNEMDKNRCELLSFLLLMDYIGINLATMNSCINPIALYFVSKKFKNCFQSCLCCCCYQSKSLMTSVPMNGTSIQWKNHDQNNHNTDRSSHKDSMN
Procedure: (§1) The test compounds are dissolved at 10^−2M in methanol: Cremophor EL® 100:1 and diluted in deionized water to concentrations of […] to 10^−6 M. Binding reactions are initiated by addition of [^125I]-labeled ET-1 or [^125I]-labeled ET-3 for the ETA and ETB receptors, respectively, after 2 minutes preincubation of the membranes in the presence of Metabolite B or Metabolite C. The specific radioligand binding to each receptor is calculated as the difference between total binding and non-specific binding, determined in the presence of an excess of unlabeled ET-1. IC; values are determined by nonlinear curve fitting from experiments performed with 3 concentrations of test compound.

[2] = target: T2, human ETB receptors expressed in CHO cells (Homo sapiens, UniProt P24530); assay: In vitro ETB receptor binding, [125I]-labeled ET-3 displacement; conditions: incubation time 30 minutes, not steady-state; read-out: Ki ± SE, ETB
T2 construct: expressed in transfected cells; host or cells: CHO cells (membranes)
T2 sequence (P24530 27-442): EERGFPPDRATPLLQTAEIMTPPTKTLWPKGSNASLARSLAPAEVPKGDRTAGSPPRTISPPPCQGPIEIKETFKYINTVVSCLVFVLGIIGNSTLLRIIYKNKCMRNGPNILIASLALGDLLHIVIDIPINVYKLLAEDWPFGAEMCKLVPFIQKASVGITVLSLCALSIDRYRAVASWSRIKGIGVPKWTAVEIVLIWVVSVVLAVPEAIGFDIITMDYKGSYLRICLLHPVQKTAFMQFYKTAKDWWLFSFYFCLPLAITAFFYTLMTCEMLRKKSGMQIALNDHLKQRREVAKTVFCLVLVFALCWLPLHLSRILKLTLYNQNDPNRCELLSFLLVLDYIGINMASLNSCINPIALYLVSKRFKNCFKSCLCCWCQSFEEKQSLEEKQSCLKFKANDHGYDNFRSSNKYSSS
Procedure: as §1

[3] = In vivo excretion in dogs; conditions: dog, after single 3 mg/kg oral dose of ambrisentan
[4] = In vitro metabolism in dog hepatocytes; conditions: 24-hour period
[5] = In vivo excretion in rats; conditions: ADME studies
[6] = Biliary excretion in dogs; conditions: 10 mg/kg intraduodenal, eight hours post-administration
[7] = In vitro metabolism in liver microsomes (phase I); format: in vitro ADME; conditions: rat, dog, and human liver microsomes
[8] = Isolated perfused rat liver model; format: in vitro ADME, male Wistar rats; conditions: for cumulative excretion of total radioactivity in the bile: six hours; for decrease of total radioactivity in the perfusate: six hours post-dose
Procedure: The metabolic pathways of ambrisentan in male Wistar rats are investigated using the isolated perfused rat liver model. […] The livers are removed from 2 animals in each dose group and perfused in a recirculating system for 6 hours and the metabolite pattern of the perfusion medium and bile determined.

[9] = cited from earlier work
[10] = In vitro metabolism in human hepatocytes; format: in vitro ADME; conditions: 24-hour period
CYP isoenzymes = assay: Reaction phenotyping with microsomes expressing single CYP isoenzymes; format: in vitro ADME
Text: (§2) Reaction phenotyping using microsomes expressing single CYP isoenzymes or uridine diphosphate glucuronosyl transferase (UGT) isoenzymes are used to identity those enzymes that are sufficient to metabolize ambrisentan in vitro.

ETA receptor = target: T3, ETA receptor (Homo sapiens, UniProt P25101); conditions: human ventricular tissue; cited from earlier work
T3 construct: Studies performed in human ventricular tissue with ambrisentan; from tissue; host or cells: human ventricular tissue
T3 sequence (P25101 21-427): T1 sequence (P25101 21-427)

[11] = Biliary excretion and enterohepatic circulation in rats; format: in vivo, male rats
Procedure: Bile and urine are collected over a 24-hour period. […] To assess enterohepatic circulation, a second set of rats (acceptor rats) is intraduodenally dosed with pooled bile (0-12 hour period) from the first set of rats (donor rats), and bile and urine are again collected over a 24-hour period. […] The metabolite patterns in bile from donor and acceptor rats are similar.

[12] = In vitro metabolism in rat hepatocytes; format: in vitro ADME; conditions: 24-hour period
[13] = system: uridine diphosphate glucuronosyl transferase (UGT) isoenzymes; assay: Reaction phenotyping with microsomes expressing single UGT isoenzymes; format: in vitro ADME
Text: as §2

[14] = both, dog, in vivo, 10 mg/kg
[15] = dog, in vivo, po, 3 mg/kg
[16] = dog, human, 24 h
[17] = donor rats, intraduodenal, within 24 hours

affinity for the ETA receptor relative to that for the ETB receptor [1]: about 100 times | Ki [1]: 22.2 ± 4.2 nM | Ki [2]: 556 ± 43.6 nM
Structure (SMILES): Cc1cc(C)nc(OC(C(=O)O)C(O)(c2ccccc2)c2ccccc2)n1 (racemic) [Metabolite C]

metabolite pattern in excreta [3]: main metabolite in urine
Structure (SMILES): Cc1cc(C)nc(O)n1 [4,6-dimethyl-2hydroxypyrimidine, 4,6-dimethyl-2-hydroxypyrimidine]

radiolabeled ambrisentan metabolized by phase II pathway [4]: 25% | share of parent compound among metabolic species in feces [5]: ca. 80% | total radioactivity excreted into the bile ([6]; female dogs): 47% | total radioactivity excreted into the bile ([6]; male dogs): 54% | turnover of parent compound to hydroxylated metabolite (Metabolite B) [7]: 3-4% | Ki [1]: 0.63 ± 0.2 nM | cumulative excretion of total radioactivity in the bile ([8]; 3 mg/kg dose): 25% | decrease of total radioactivity in the perfusate ([8]; 3 mg/kg dose): 55% | cumulative excretion of total radioactivity in the bile ([8]; 10 mg/kg dose): 30% | decrease of total radioactivity in the perfusate ([8]; 10 mg/kg dose): 55% | cumulative excretion of total radioactivity in the bile ([8]; 30 mg/kg dose): 31% | decrease of total radioactivity in the perfusate ([8]; 30 mg/kg dose): 45% | radiolabeled ambrisentan metabolized by phase II pathway [10]: 21% | CYP isoenzymes that oxidatively metabolize the compound (CYP isoenzymes): CYP3A4, CYP2C19, and CYP3A5 | total radioactivity recovered in the bile of acceptor rats ([11]; acceptor rats dosed intraduodenally with pooled donor bile, 24-hour period): 76.5-94% | total radioactivity recovered from the bile [11, 17]: 94.8% | total radioactivity recovered from the urine [11, 17]: 1.5% | share of parent compound among metabolic species in bile ([11]; rats, biliary excretion study): 95% | metabolized by phase II pathway [12]: 15% | UGT isoenzymes that glucuronidate the compound [13]: UGT1A9S, UGT2B7S, and UGT1A3S
Structure (SMILES): COC(c1ccccc1)(c1ccccc1)[C@H](Oc1nc(C)cc(C)n1)C(=O)O [Ambrisentan, (S)-2-[(4,6-dimethylpyrimidin-2-yl)oxy]-3-methoxy-3,3-diphenylpropionic acid]
mean 6MWD, mean increase from baseline ([9]; all patients, after 12 weeks of treatment): 36 meters | primary efficacy endpoint (exercise capacity measured by 6MWD) ([9]; phase II trials, all four dose groups): statistically significant and clinically meaningful increase | affinity for the ETA receptor (ETA receptor): high affinity (low Ki)

share of the total radioactivity in bile [14]: 77-81% | metabolite pattern in excreta [15]: main metabolite in feces
Structure (SMILES): COC(c1ccccc1)(c1ccccc1)[C@H](Oc1nc(C)cc(C)n1)C(=O)O[C@@H]1O[C@H](C(=O)O)[C@@H](O)[C@H](O)[C@H]1O [Metabolite A, (2S,3S,4S,5R,6S)-6-((S)-2-(4,6-Dimethylpyrimidin-2-yloxy)-3-methoxy-3,3-diphenylpropanoyloxy)-3,4,5-trihydroxytetrahydro-2H-pyran-2-carboxylic acid]

affinity for the ETA receptor relative to that for the ETB receptor [1]: about 100 times | Ki [1]: 40.3 ± 6.1 nM | Ki [2]: 4100 ± 322 nM | amount of hydroxylated metabolite detected [16]: < 1%
Structure (SMILES): COC(c1ccccc1)(c1ccccc1)[C@H](Oc1nc(C)cc(CO)n1)C(=O)O [Metabolite B, (S)-2-(4-(Hydroxymethyl)-6-methylpyrimidin-2-yloxy)-3-methoxy-3,3-diphenylpropanoic acid]
